According to US20240408169A1 (priority 2023, published 2024):
pIC50: −log10 of the molar value. *1 amine or outer side, *2 acyl side, *3 side chain or, on linkers, in order; H or OH if unused. Where a SMILES comes first, the peptide text is derived from it. Bridges are numbered along the chain shown (N, C = ends). [ ]: non-standard residue; d: D form. The star is where a group is joined. X10 = CC(C)C(=O)N1[C@H]2COC[C@@H]1C=C(c1ccc(Cl)cc1C[C@@H](C(=O)[*:2])N(C)[*:1])C2; X110 = CC(C)C(=O)N1[C@H]2CC[C@@H]1C=C(c1ccc(Cl)cc1C[C@@H](C(=O)[*:2])N(C)[*:1])C2; X7 = CC(C)C(=O)N1[C@H]2CC[C@@H]1C=C(c1ccc(F)cc1C[C@@H](C(=O)[*:2])N(C)[*:1])C2; NMePhe(2-(4-MorPh),5-Cl) = CN[C@@H](Cc1cc(Cl)ccc1-c1ccc(N2CCOCC2)cc1)C(=O)O; X42 = CN([C@@H](Cc1cc(Cl)ccc1-c1cnn(S(=O)(=O)C2CC2)c1)C(=O)[*:2])[*:1]; X11 = CN1CCN(c2ccc(-c3ccc(Cl)cc3C[C@@H](C(=O)[*:2])N(C)[*:1])cc2)CC1; X82 = CN([C@@H](Cc1cc(Cl)ccc1-c1cnn(S(C)(=O)=O)c1)C(=O)[*:2])[*:1]; X18 = CC(=O)N1CCC(=Cc2ccc(Cl)cc2C[C@@H](C(=O)[*:2])N(C)[*:1])CC1; X87 = CN([C@@H](Cc1cc(F)ccc1-c1ccc(N2CCOCC2)cc1)C(=O)[*:2])[*:1]; X60 = CN([C@@H](Cc1cc(Cl)ccc1-c1cnn2ccncc12)C(=O)[*:2])[*:1]; X76 = CN([C@@H](Cc1cc(Cl)ccc1-c1cnn2cccnc12)C(=O)[*:2])[*:1]; NMehhhLys(Me) = CN([C@@H](CCCCCCCN(C)[*:3])C(=O)[*:2])[*:1]; X66 = CN([C@@H](Cc1cc(Cl)ccc1-c1cccnc1)C(=O)[*:2])[*:1]; NMe(hhhLys) = CN([C@@H](CCCCCCCN[*:3])C(=O)[*:2])[*:1]; X17 = CN([C@@H](Cc1cc(Cl)cnc1N1CCOCC1)C(=O)[*:2])[*:1]; Oxane2carbonyl(2R-CF3) = O=C([C@@]1(C(F)(F)F)CCCCO1)*; X33 = CN([C@@H](Cc1cc(Cl)cc2c1OCCO2)C(=O)[*:2])[*:1]; cBuCO(3,3-F2-1-CF3) = O=C(C1(C(F)(F)F)CC(F)(F)C1)*; Pro(trans-4-F) = O=C(O)[C@@H]1C[C@@H](F)CN1; Pivaloyl(3,3,3-F3) = CC(C)(C(=O)*)C(F)(F)F; Gly(cPr) = N[C@H](C(=O)O)C1CC1

Assays:
[1] = target: T1, CyclinA2/CDK2 (Homo sapiens, UniProt P20248); assay: Fluorescence Polarization (FP) competitive binding assay, Cyclin A2/Cdk2; conditions: 8 nM Cyclin A2/Cdk2, 2 nM FAM probe; average of 2-3 independent experiments; read-out: Cyclin A FP IC50;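 also: plates equilibrated two hours at room temperature before polarization reading, IC50 fitted from eight-concentration compound titration curves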
T1 construct: purchased CRELUX Protein Services

[2] = target: T2, CyclinB1/CDK1 (Homo sapiens, UniProt P14635); assay: Fluorescence Polarization (FP) competitive binding assay, Cyclin B1/Cdk1; conditions: 10 nM Cyclin B1/Cdk1, 2 nM FAM probe; average of 2-3 independent experiments; read-out: Cyclin B FP IC50;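 also: fluorescence polarization read after equilibration at room temperature, with IC50 taken from serially diluted dose-response curves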
T2 construct: purchased Eurofins, discovery 14-450

[3] = target: T3, CyclinE1/CDK2 (Homo sapiens, UniProt P24864); assay: Fluorescence Polarization (FP) competitive binding assay, Cyclin E1/Cdk2; conditions: 10 nM Cyclin E1/Cdk2, 2 nM FAM probe; average of 2-3 independent experiments; read-out: Cyclin E FP IC50;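 also: readings taken after two-hour equilibration at room temperature in HEPES buffer with NaCl, DTT, NP-40 and BSA, IC50 fitted from eight-concentration serial dilution series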
T3 construct: purchased Eurofins, discovery 14-475

[4] = tested on: WI-38 cells; assay: MTT proliferation assay, WI-38; assay type: cell-based; conditions: 3 days compound exposure, 1:3 serial dilution starting at 10 μM;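 also: Eight- or ten-point dilution series, with exposure length chosen to span about three to four cell doublings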
[5] = tested on: NCI-H1048 cells; assay: MTT proliferation assay, NCI-H1048; assay type: cell-based; conditions: 5 days compound exposure, 1:3 serial dilution starting at 10 μM;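 also: Dose-response in 96-well plates over 8 or 10 concentration points, with exposure spanning 3-4 cell doublings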
[6] = tested on: OVCAR3 cells; assay: MTT proliferation assay, OVCAR3; assay type: cell-based; conditions: 5 days compound exposure, 1:3 serial dilution starting at 10 μM;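 also: compound given as an 8- or 10-point series, one day after plating, with exposure covering roughly 3-4 cell doublings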

SMILES | pIC50 [1] | pIC50 [2] | pIC50 [3] | GI50 [4] [µM] | GI50 [5] [µM] | GI50 [6] [µM]
CC(C)C[C@@H]1NC(=O)[C@@H](N(C)C(=O)[C@@H](NC(=O)[C@@H]2C[C@@H](F)CN2C(=O)C2(C(F)(F)F)CC(F)(F)C2)C2CC2)CCCCCCCNC(=O)[C@H](Cc2cc(Cl)ccc2-c2cccnc2)N(C)C1=O [Example 276] ({cBuCO(3,3-F2-1-CF3)}-[Pro(trans-4-F)][Gly(cPr)][NMe(hhhLys)]L[X66]; lactam 3-C) | 7.52 | 7.70 | 6.15 | 23.4 | 0.02 | 0.02
CC(C)C[C@@H]1NC(=O)[C@@H](N(C)C(=O)[C@@H](NC(=O)[C@@H]2C[C@@H](F)CN2C(=O)[C@@]2(C(F)(F)F)CCCCO2)C2CC2)CCCCCCCN(C)C(=O)[C@H](Cc2cc(Cl)ccc2-c2cnn(S(=O)(=O)C3CC3)c2)N(C)C1=O [Example 283] ({Oxane2carbonyl(2R-CF3)}-[Pro(trans-4-F)][Gly(cPr)][NMehhhLys(Me)]L[X42]; lactam 3-C) | 7.52 | 7.70 | 6.74 | 14.2 | 0.01 | 0.01
CC(=O)N1CC=C(c2ccc(Cl)cc2C[C@H]2C(=O)NCCC=CCCC[C@H](N(C)C(=O)[C@@H](NC(=O)[C@@H]3C[C@@H](F)CN3C(=O)C3(C(F)(F)F)CC(F)(F)C3)C3CC3)C(=O)N[C@@H](CC(C)C)C(=O)N2C)CC1 [Example 286] | 7.10 | 7.70 | 5.40 | 6.5 | 0.06 | 0.05
CC(=O)N1CCC(=Cc2ccc(Cl)cc2C[C@H]2C(=O)NCCCCCCC[C@H](N(C)C(=O)[C@@H](NC(=O)[C@@H]3C[C@@H](F)CN3C(=O)C3(C(F)(F)F)CC(F)(F)C3)C3CC3)C(=O)N[C@@H](CC(C)C)C(=O)N2C)CC1 [Example 288] ({cBuCO(3,3-F2-1-CF3)}-[Pro(trans-4-F)][Gly(cPr)][NMe(hhhLys)]L[X18]; lactam 3-C) | 7.52 | 7.70 | 6.44 | 13.8 | 0.02 | 0.02
CC(=O)N1CCC(=Cc2ccc(Cl)cc2C[C@H]2C(=O)N(C)CCCCCCC[C@H](N(C)C(=O)[C@@H](NC(=O)[C@@H]3C[C@@H](F)CN3C(=O)C3(C(F)(F)F)CC(F)(F)C3)C3CC3)C(=O)N[C@@H](CC(C)C)C(=O)N2C)CC1 [Example 289] ({cBuCO(3,3-F2-1-CF3)}-[Pro(trans-4-F)][Gly(cPr)][NMehhhLys(Me)]L[X18]; lactam 3-C) | 7.52 | 7.70 | 6.49 | 3.78 | 0.01 | 0.01
CC(C)C[C@@H]1NC(=O)[C@@H](N(C)C(=O)[C@@H](NC(=O)[C@@H]2C[C@@H](F)CN2C(=O)C2(C(F)(F)F)CC(F)(F)C2)C2CC2)CCCCCCCN(C)C(=O)[C@H](Cc2cc(Cl)ccc2-c2cnn3cccnc23)N(C)C1=O [Example 297] ({cBuCO(3,3-F2-1-CF3)}-[Pro(trans-4-F)][Gly(cPr)][NMehhhLys(Me)]L[X76]; lactam 3-C) | 7.40 | 7.70 | 5.90 | 9.15 | 0.02 | 0.03
CC(C)C[C@@H]1NC(=O)[C@@H](N(C)C(=O)[C@@H](NC(=O)[C@@H]2C[C@@H](F)CN2C(=O)[C@@]2(C(F)(F)F)CCCCO2)C2CC2)CCCCCCCN(C)C(=O)[C@H](Cc2cc(Cl)ccc2-c2cnn(S(C)(=O)=O)c2)N(C)C1=O [Example 299] ({Oxane2carbonyl(2R-CF3)}-[Pro(trans-4-F)][Gly(cPr)][NMehhhLys(Me)]L[X82]; lactam 3-C) | 7.70 | 7.70 | 6.89 | 14.3 | 0.01 | 0.01
CC(C)C[C@@H]1NC(=O)[C@@H](N(C)C(=O)[C@@H](NC(=O)[C@@H]2C[C@@H](F)CN2C(=O)C2(C(F)(F)F)CC(F)(F)C2)C2CC2)CCCCCCCN(C)C(=O)[C@H](Cc2cc(Cl)ccc2-c2cnn3ccncc23)N(C)C1=O [Example 305] ({cBuCO(3,3-F2-1-CF3)}-[Pro(trans-4-F)][Gly(cPr)][NMehhhLys(Me)]L[X60]; lactam 3-C) | 7.30 | 7.70 | 5.76 | 19.2 | 0.01 | 0.02
CC(C)C[C@@H]1NC(=O)[C@@H](N(C)C(=O)[C@@H](NC(=O)[C@@H]2C[C@@H](F)CN2C(=O)C2(C(F)(F)F)CC(F)(F)C2)C2CC2)CCCCCCCNC(=O)[C@H](Cc2cc(Cl)ccc2C2=C[C@H]3CC[C@@H](C2)N3C(=O)C(C)C)N(C)C1=O [Example 313] ({cBuCO(3,3-F2-1-CF3)}-[Pro(trans-4-F)][Gly(cPr)][NMe(hhhLys)]L[X110]; lactam 3-C) | 7.70 | 7.70 | 6.19 | 36.6 | 0.01 | 0.01
CC(C)C[C@@H]1NC(=O)[C@@H](N(C)C(=O)[C@@H](NC(=O)[C@@H]2C[C@@H](F)CN2C(=O)C2(C(F)(F)F)CC(F)(F)C2)C2CC2)CCCCCCCN(C)C(=O)[C@H](Cc2cc(F)ccc2C2=C[C@H]3CC[C@@H](C2)N3C(=O)C(C)C)N(C)C1=O [Example 318] ({cBuCO(3,3-F2-1-CF3)}-[Pro(trans-4-F)][Gly(cPr)][NMehhhLys(Me)]L[X7]; lactam 3-C) | 7.70 | 7.70 | 6.55 | 9.92 | 0.01 | 0.01
CC(C)C[C@@H]1NC(=O)[C@@H](N(C)C(=O)[C@@H](NC(=O)[C@@H]2C[C@@H](F)CN2C(=O)C2(C(F)(F)F)CC(F)(F)C2)C2CC2)CCCCCCCN(C)C(=O)[C@H](Cc2cc(Cl)cnc2N2CCOCC2)N(C)C1=O [Example 320] ({cBuCO(3,3-F2-1-CF3)}-[Pro(trans-4-F)][Gly(cPr)][NMehhhLys(Me)]L[X17]; lactam 3-C) | 7.52 | 7.70 | 5.84 | 15.5 | 0.01 | 0.02
CC(C)C[C@@H]1NC(=O)[C@@H](N(C)C(=O)[C@@H](NC(=O)[C@@H]2C[C@@H](F)CN2C(=O)C2(C(F)(F)F)CC(F)(F)C2)C2CC2)CCCCCCCN(C)C(=O)[C@H](Cc2cc(Cl)cc3c2OCCO3)N(C)C1=O [Example 321] ({cBuCO(3,3-F2-1-CF3)}-[Pro(trans-4-F)][Gly(cPr)][NMehhhLys(Me)]L[X33]; lactam 3-C) | 7.70 | 7.70 | 7.00 | 89.8 | 0.01 | 0.01
CC(C)C[C@@H]1NC(=O)[C@@H](N(C)C(=O)[C@@H](NC(=O)[C@@H]2C[C@@H](F)CN2C(=O)C2(C(F)(F)F)CC(F)(F)C2)C2CC2)CCCCCCCNC(=O)[C@H](Cc2cc(Cl)ccc2C2=C[C@H]3COC[C@@H](C2)N3C(=O)C(C)C)N(C)C1=O [Example 327] ({cBuCO(3,3-F2-1-CF3)}-[Pro(trans-4-F)][Gly(cPr)][NMe(hhhLys)]L[X10]; lactam 3-C) | 7.70 | 7.70 | 6.40 | 83.9 | 0.01 | 0.01
CC(C)C[C@@H]1NC(=O)[C@@H](N(C)C(=O)[C@@H](NC(=O)[C@@H]2C[C@@H](F)CN2C(=O)C2(C(F)(F)F)CC(F)(F)C2)C2CC2)CCCCCCCNC(=O)[C@H](Cc2cc(Cl)cc3c2OCCO3)N(C)C1=O [Example 330] ({cBuCO(3,3-F2-1-CF3)}-[Pro(trans-4-F)][Gly(cPr)][NMe(hhhLys)]L[X33]; lactam 3-C) | 7.52 | 7.70 | 7.00 | 18.5 | 0.01 | 0.01
CC(C)C[C@@H]1NC(=O)[C@@H](N(C)C(=O)[C@@H](NC(=O)[C@@H]2C[C@@H](F)CN2C(=O)C(C)(C)C(F)(F)F)C2CC2)CCCCCCCN(C)C(=O)[C@H](Cc2cc(Cl)ccc2-c2ccc(N3CCOCC3)cc2)N(C)C1=O [Example 335] ({Pivaloyl(3,3,3-F3)}-[Pro(trans-4-F)][Gly(cPr)][NMehhhLys(Me)]L[NMePhe(2-(4-MorPh),5-Cl)]; lactam 3-C) | 7.70 | 7.70 | 6.80 | 4.75 | 0.01 | 0.01
CC(C)C[C@@H]1NC(=O)[C@@H](N(C)C(=O)[C@@H](NC(=O)[C@@H]2C[C@@H](F)CN2C(=O)C2(C(F)(F)F)CC(F)(F)C2)C2CC2)CCCCCCCN(C)C(=O)[C@H](Cc2cc(Cl)ccc2-c2ccc(N3CCN(C)CC3)cc2)N(C)C1=O [Example 336] ({cBuCO(3,3-F2-1-CF3)}-[Pro(trans-4-F)][Gly(cPr)][NMehhhLys(Me)]L[X11]; lactam 3-C) | 7.70 | 7.70 | 6.38 | 2.48 | 0.01 | 0.01
CC(C)C[C@@H]1NC(=O)[C@@H](N(C)C(=O)[C@@H](NC(=O)[C@@H]2C[C@@H](F)CN2C(=O)C2(C(F)(F)F)CC(F)(F)C2)C2CC2)CCCCCCCN(C)C(=O)[C@H](Cc2cc(F)ccc2-c2ccc(N3CCOCC3)cc2)N(C)C1=O [Example 337] ({cBuCO(3,3-F2-1-CF3)}-[Pro(trans-4-F)][Gly(cPr)][NMehhhLys(Me)]L[X87]; lactam 3-C) | 7.70 | 7.70 | 6.72 | 18.7 | 0.01 | 0.01
